Legend:
Test in all cases: 5-day cell proliferation assay (CTG)
Format in all cases: cell-based
MOLM-13 = conditions: Homo sapiens, 120 h, MOLM-13, Leukemia
Summary of the method: (§1)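 Using triplicate wells, compound-treated cultures are kept for 5 days at 37 °C and then quantified by CTG luminescence after 10 min in the dark at room temperature. A day 0 plate records starting density; GI50 comes from a sigmoidal curve fit.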

Raji = conditions: Homo sapiens, 120 h, Lymphoma
Summary of the method: as §1

Hep G2 = conditions: Homo sapiens, HepG2, 120 h, Hep G2, Liver
Summary of the method: as §1

SiHa = conditions: Homo sapiens, 120 h, Cervix
Summary of the method: as §1

HEP-3B = conditions: Homo sapiens, Hep3B, 120 h, Liver
Summary of the method: as §1

MKN-45 = conditions: Homo sapiens, 120 h, MKN-45, Stomach/Gastric
Summary of the method: as §1

MIA PaCa-2 = conditions: Homo sapiens, 120 h, MIA PaCa-2, Pancreas
Summary of the method: as §1

Kasumi-1 = conditions: Homo sapiens, 120 h, Kasumi-1, Leukemia
Summary of the method: as §1

BT-20 = conditions: Homo sapiens, 120 h, BT-20, Breast
Summary of the method: as §1

786-O = conditions: Homo sapiens, 786-0, 120 h, Kidney
Summary of the method: as §1

KYSE-150 = conditions: Homo sapiens, 120 h, KYSE-150, Oesophagus
Summary of the method: as §1

U937 = conditions: Homo sapiens, U-937, 120 h, U937, Leukemia
Summary of the method: as §1

22RV1 = conditions: Homo sapiens, 120 h, 22RV1, Prostate
Summary of the method: as §1

VCAP = conditions: Homo sapiens, 120 h, Prostate
Summary of the method: as §1

KARPAS-422 = conditions: Homo sapiens, 120 h, KARPAS-422, Lymphoma
Summary of the method: as §1

A549 = conditions: Homo sapiens, 120 h, A549, Lung
Summary of the method: as §1

HT-3 = conditions: Homo sapiens, 120 h, HT-3, Cervix
Summary of the method: as §1

SF268 = conditions: Homo sapiens, SF-268, 120 h, SF268, Brain/Nerves
Summary of the method: as §1

A375 = conditions: Homo sapiens, A-375, 120 h, A375, Skin
Summary of the method: as §1

Ramos = conditions: Homo sapiens, 120 h, Lymphoma
Summary of the method: as §1

K562 = conditions: Homo sapiens, 120 h, K562, Leukemia
Summary of the method: as §1

Granta-519 = conditions: Homo sapiens, 120 h, Granta-519, Lymphoma
Summary of the method: as §1

OVCAR-4 = conditions: Homo sapiens, 120 h, OVCAR-4, Ovary
Summary of the method: as §1

PC-3 = conditions: Homo sapiens, 120 h, PC-3, Prostate
Summary of the method: as §1

Caco-2 = conditions: Homo sapiens, 120 h, Caco-2, Colorectal
Summary of the method: as §1

Caki 2 = conditions: Homo sapiens, 120 h, Caki 2, Kidney
Summary of the method: as §1

CC(C)C[C@@H]1NCCN([C@@H](CC(C)C)C(=O)N2CCC3(C[C@@H]2C)OCC(CN2CCCC2)CO3)C1=O (stereo partly drawn) [Compound 258, (3S)-1-[(2S)-4-methyl-1-oxo-1-[(3s,6s,8S)-8-methyl-3-(pyrrolidin-1-ylmethyl)-1,5-dioxa-9-azaspiro[5.5]undec-an-9-yl]pentan-2-yl]-3-(2-methylpropyl)piper-azin-2-one (^≠), isomer Z]
GI50 (MOLM-13): 4 nM
GI50 (Raji): 28 nM
GI50 (Hep G2): 6 nM
GI50 (SiHa): 52 nM
GI50 (HEP-3B): 23 nM
GI50 (MKN-45): 4 nM
GI50 (MIA PaCa-2): 11 nM
GI50 (Kasumi-1): 19 nM
GI50 (BT-20): 15 nM
GI50 (786-O): 28 nM
GI50 (KYSE-150): 11 nM
GI50 (U937): 22 nM
GI50 (22RV1): 9 nM
GI50 (VCAP): 128 nM
GI50 (KARPAS-422): 48 nM
GI50 (A549): 10 nM
GI50 (HT-3): 330 nM
GI50 (SF268): 30 nM
GI50 (A375): 6 nM
GI50 (Ramos): 27 nM
GI50 (K562): 17 nM
GI50 (Granta-519): 38 nM
GI50 (OVCAR-4): 12 nM
GI50 (PC-3): 13 nM
GI50 (Caco-2): 10 nM
GI50 (Caki 2): 14 nM

From patent publication US20250115571A1, “OXOPIPERAZINE DERIVATIVES” (Inthera Bioscience AG, priority 2017, published 2025)
